Assay results as given in patent US11453647B2, “Benzimidazole derivatives as adenosine receptor antagonists” (Merck Patent GmbH, priority 2017, dated 2022).
pIC50: −log10 of the molar value.

What was measured:
Assay type in all cases: cell-based
[1] = target: T1, human A2A receptor (Homo sapiens, UniProt P29274); experiment: functional cAMP (HTRF) assay, recombinant HEK293 cells expressing human A2A receptor, agonist NECA
T1 construct: expressed in transfected cells; host or cells: HEK293

[2] = target: T2, human A3 receptor (Homo sapiens, UniProt P0DMS8); experiment: functional cAMP (HTRF) assay, recombinant CHO cells expressing human A3 receptor, forskolin, agonist IB-MECA
T2 construct: expressed in transfected cells; host or cells: CHO
T2 sequence (P0DMS8 1-318): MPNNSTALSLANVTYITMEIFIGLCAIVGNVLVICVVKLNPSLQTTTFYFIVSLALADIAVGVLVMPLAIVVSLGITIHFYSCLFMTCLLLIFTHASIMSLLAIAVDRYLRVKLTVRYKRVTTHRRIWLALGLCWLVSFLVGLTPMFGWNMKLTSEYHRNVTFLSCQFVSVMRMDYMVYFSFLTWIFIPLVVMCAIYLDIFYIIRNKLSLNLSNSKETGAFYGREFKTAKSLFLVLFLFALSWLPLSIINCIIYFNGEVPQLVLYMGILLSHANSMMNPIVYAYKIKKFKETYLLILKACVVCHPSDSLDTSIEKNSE
Outline: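 Recombinant CHO cells expressing A1 or A3 receptor (Gi-coupled) were stimulated with forskolin together with test compound and agonist (CPA for A1, IB-MECA for A3), incubated 30 min, then cellular cAMP was read by HTRF. Data were normalized to inhibitor control and DMSO neutral control, then curve-fitted.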

[3] = target: T3, human A1 receptor (Homo sapiens, UniProt P30542); experiment: functional cAMP (HTRF) assay, recombinant CHO cells expressing human A1 receptor, forskolin, agonist CPA
T3 construct: expressed in transfected cells; host or cells: CHO
T3 sequence (P30542 1-326): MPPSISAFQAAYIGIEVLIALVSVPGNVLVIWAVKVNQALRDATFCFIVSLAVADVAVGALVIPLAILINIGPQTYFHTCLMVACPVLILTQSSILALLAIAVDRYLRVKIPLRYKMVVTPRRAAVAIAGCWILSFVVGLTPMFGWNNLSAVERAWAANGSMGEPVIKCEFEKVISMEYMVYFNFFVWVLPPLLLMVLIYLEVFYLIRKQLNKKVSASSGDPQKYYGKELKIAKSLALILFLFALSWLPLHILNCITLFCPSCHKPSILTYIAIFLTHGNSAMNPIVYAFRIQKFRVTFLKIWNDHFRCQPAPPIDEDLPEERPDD
Description: The functional activities of human A2A, A2B, A1 and A3 receptors were determined by quantification of cAMP, being the second messenger for adenosine receptors.
For human A1 and A3 receptors, recombinant CHO cells, expressing either A1 or A3-receptor, were used. As both receptors couple to Gi proteins, the assay protocol was adapted:
Cells were seeded into 384-well plates, forskolin, test compounds and agonists (CPA for A1- and IB-MECA for A3-receptor) were added. After 30 min incubation, HTRF reagents (cAMP dynamic 2, Cis Bio) were added and the cellular cAMP levels were determined using the ENVISION (Perkin Elmer) plate reader. Obtained raw data were normalized against the inhibitor control and the neural control (DMSO) and the normalized data were fitted using GeneData software.

[4] = target: T4, A2B receptors (Homo sapiens, UniProt P29275); experiment: functional cAMP (HTRF) assay, recombinant HEK293 cells expressing human A2B receptor, agonist NECA; design: expressed in transfected cells; host or cells: HEK293
T4 sequence (P29275 1-332): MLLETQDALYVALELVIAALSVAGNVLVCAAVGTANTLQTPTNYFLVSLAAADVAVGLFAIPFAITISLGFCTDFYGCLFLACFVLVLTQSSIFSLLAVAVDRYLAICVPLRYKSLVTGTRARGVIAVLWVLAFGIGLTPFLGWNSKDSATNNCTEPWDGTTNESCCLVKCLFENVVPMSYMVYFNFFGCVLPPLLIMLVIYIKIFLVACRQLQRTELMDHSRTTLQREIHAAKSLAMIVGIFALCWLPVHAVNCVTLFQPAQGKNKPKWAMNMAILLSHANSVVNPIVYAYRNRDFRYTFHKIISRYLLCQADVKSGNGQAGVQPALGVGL

T1 sequence (P29274 whole entry): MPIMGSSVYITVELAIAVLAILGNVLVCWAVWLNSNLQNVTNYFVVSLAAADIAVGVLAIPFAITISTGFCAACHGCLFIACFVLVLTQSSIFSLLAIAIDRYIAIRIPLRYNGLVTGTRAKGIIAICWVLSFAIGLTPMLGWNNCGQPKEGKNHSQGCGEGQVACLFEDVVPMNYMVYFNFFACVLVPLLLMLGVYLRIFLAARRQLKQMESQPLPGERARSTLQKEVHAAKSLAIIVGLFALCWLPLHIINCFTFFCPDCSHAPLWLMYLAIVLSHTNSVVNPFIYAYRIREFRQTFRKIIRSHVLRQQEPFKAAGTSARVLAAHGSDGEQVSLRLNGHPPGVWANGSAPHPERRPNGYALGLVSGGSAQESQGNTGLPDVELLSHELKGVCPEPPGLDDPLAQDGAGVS

SMILES	pIC50 [1]	pIC50 [2]	pIC50 [3]	pIC50 [4]
COc1ccc(-c2ccccc2)c2nc(NC(=O)c3ccnc(N4CCOCC4)c3)[nH]c12 [compound 7, N-(7-Methoxy-4-phenyl-1H-benzoimidazol-2-yl)-2-morpholin-4-yl-isonicotinamide]	> 8.00	> 7.00	< 6.00	> 6.00
COc1ccc(-c2ccccc2)c2nc(NC(=O)c3ccc(N4CCOCC4)nc3)[nH]c12 [compound 8, N-(7-Methoxy-4-phenyl-1H-benzoimidazol-2-yl)-6-morpholin-4-yl-nicotinamide]	> 8.00	> 6.00	< 6.00	< 6.00
COc1ccc(-c2ccccc2)c2nc(NC(=O)c3ccc(CN)cc3)[nH]c12 [compound 13, 4-Aminomethyl-N-(7-methoxy-4-phenyl-1H-benzoimidazol-2-yl)-benzamide]	> 8.00	> 6.00	< 6.00	> 6.00
COc1ccc(C2CCCCC2)c2nc(NC(=O)N3CCC(C)(O)CC3)[nH]c12 [compound 16, 4-Hydroxy-4-methyl-piperidine-1-carboxylic acid (4-cyclohexyl-7-methoxy-1H-benzoimidazol-2-yl)-amide]	> 8.00	> 6.00	< 6.00	< 6.00
COc1ccc(-c2cnn(C)c2)c2nc(NC(=O)c3ccnc(N4CCOCC4)c3)[nH]c12 [compound 26, N-[7-Methoxy-4-(1-methyl-1H-pyrazol-4-yl)-1H-benzoimidazol-2-yl]-2-morpholin-4-yl-isonicotinamide]	> 8.00	> 6.00	< 6.00	< 6.00
COc1ccc(-c2cnn(C)c2)c2nc(NC(=O)c3ccc(CN(C)C)cc3)[nH]c12 [compound 48, 4-[(dimethylamino)methyl]-N-[7-methoxy-4-(1-methyl-1H-pyrazol-4-yl)-1H-1,3-benzodiazol-2-yl]benzamide]	> 8.00	< 6.00	< 6.00	< 6.00
COCc1ccc(C(=O)Nc2nc3c(-c4cnn(C)c4)ccc(OC)c3[nH]2)cc1 [compound 49, N-[7-methoxy-4-(1-methyl-1H-pyrazol-4-yl)-1H-1,3-benzodiazol-2-yl]-4-(methoxymethyl)benzamide]	> 8.00	> 7.00	< 6.00	> 6.00
COc1ccc(-c2cnn(C)c2)c2nc(NC(=O)N3CCC(Oc4ccccc4)CC3)[nH]c12 [compound 54, N-[7-methoxy-4-(1-methyl-1H-pyrazol-4-yl)-1H-1,3-benzodiazol-2-yl]-4-phenoxypiperidine-1-carboxamide]	> 7.00	< 6.00	> 6.00	> 6.00
COc1ccc(N2CCOCC2)c2nc(NC(=O)c3ccc(F)cc3)[nH]c12 [compound 63, 4-fluoro-N-[7-methoxy-4-(morpholin-4-yl)-1H-1,3-benzodiazol-2-yl]benzamide]	> 8.00	> 7.00	< 6.00	> 6.00
COc1ccc(N2CCOCC2)c2nc(NC(=O)c3ccc(Cn4ccnc4)cc3)[nH]c12 [compound 76, 4-[(1H-imidazol-1-yl)methyl]-N-[7-methoxy-4-(morpholin-4-yl)-1H-1,3-benzodiazol-2-yl]benzamide]	> 8.00	< 6.00	< 6.00	> 6.00
COc1ccc(-c2cn[nH]c2)c2nc(NC(=O)N3CCC(C)(O)CC3)[nH]c12 [compound 79, 4-hydroxy-N-[7-methoxy-4-(1H-pyrazol-4-yl)-1H-1,3-benzodiazol-2-yl]-4-methylpiperidine-1-carboxamide]	> 7.00	< 6.00	< 6.00	> 6.00
COc1ccc(-c2cnn(C)c2)c2nc(NC(=O)c3ccc4occc4c3)[nH]c12 [compound 80, N-[7-methoxy-4-(1-methyl-1H-pyrazol-4-yl)-1H-1,3-benzodiazol-2-yl]-1-benzofuran-5-carboxamide]	> 7.00	> 6.00	< 6.00	> 6.00
COc1ccc(-c2cnn(C)c2)c2nc(NC(=O)c3ccon3)[nH]c12 [compound 84, N-[7-methoxy-4-(1-methyl-1H-pyrazol-4-yl)-1H-1,3-benzodiazol-2-yl]-1,2-oxazole-3-carboxamide]	> 7.00	> 6.00	> 6.00	> 6.00
COc1ccc(-c2ccncc2)c2nc(NC(=O)N3CCC4(COC4)C3)[nH]c12 [compound 85, N-[7-methoxy-4-(pyridin-4-yl)-1H-1,3-benzodiazol-2-yl]-2-oxa-6-azaspiro[3.4]octane-6-carboxamide]	> 7.00	< 6.00	< 6.00	> 6.00
COc1ccc(N2CCOCC2)c2nc(NC(=O)c3cnn(C(CO)CCl)c3)[nH]c12 (stereo not shown) [compound 86, 1-(1-chloro-3-hydroxypropan-2-yl)-N-[7-methoxy-4-(morpholin-4-yl)-1H-1,3-benzodiazol-2-yl]-1H-pyrazole-4-carboxamide]	> 8.00	< 6.00	< 6.00	< 6.00
COc1ccc(C2CCOCC2)c2nc(NC(=O)c3ccc(CN(C)C)cc3)[nH]c12 [compound 88, 4-[(dimethylamino)methyl]-N-[7-methoxy-4-(oxan-4-yl)-1H-1,3-benzodiazol-2-yl]benzamide]	> 8.00	< 6.00	< 6.00	< 6.00
COc1ccc(C2CCOCC2)c2nc(NC(=O)c3cnc(C)o3)[nH]c12 [compound 234, N-[7-methoxy-4-(oxan-4-yl)-1H-1,3-benzodiazol-2-yl]-2-methyl-1,3-oxazole-5-carboxamide]	> 8.00	> 6.00	< 6.00	–
COc1ccc(-c2cnn(C3CCOC3)c2)c2nc(NC(=O)N3CCC(C)(O)CC3)[nH]c12 (stereo not shown) [compound 241, 4-hydroxy-N-{4-methoxy-7-[1-(oxolan-3-yl)-1H-pyrazol-4-yl]-1H-1,3-benzodiazol-2-yl}-4-methylpiperidine-1-carboxamide]	> 7.00	< 6.00	< 6.00	–
COc1ccc(-c2cnn(C3CN(C(=O)OC(C)(C)C)C3)c2)c2[nH]c(NC(=O)N3CCC(C)(O)CC3)nc12 [compound 245, tert-butyl 3-(4-{2-[(4-hydroxy-4-methylpiperidine-1-carbonyl)amino]-4-methoxy-1H-1,3-benzodiazol-7-yl}-1H-pyrazol-1-yl)azetidine-1-carboxylate]	> 7.00	< 6.00	< 6.00	–
COc1ccc(-c2ccnc3[nH]ccc23)c2[nH]c(NC(=O)N3CCC(C)(O)CC3)nc12 [compound 270, 4-hydroxy-N-(7-methoxy-4-{1H-pyrrolo[2,3-b]pyridin-4-yl}-1H-1,3-benzodiazol-2-yl)-4-methylpiperidine-1-carboxamide]	> 7.00	< 6.00	< 6.00	–
COc1ccc(-c2ccc3c(cnn3C)c2)c2nc(NC(=O)N3CCC(C)(O)CC3)[nH]c12 [compound 273, 4-hydroxy-N-[7-methoxy-4-(1-methyl-1H-indazol-5-yl)-1H-1,3-benzodiazol-2-yl]-4-methylpiperidine-1-carboxamide]	> 7.00	< 6.00	< 6.00	–
COc1ccc(-c2cccc3c2CCN3)c2nc(NC(=O)N3CCC(C)(O)CC3)[nH]c12 [compound 292, N-[4-(2,3-dihydro-1H-indol-4-yl)-7-methoxy-1H-1,3-benzodiazol-2-yl]-4-hydroxy-4-methylpiperidine-1-carboxamide]	> 7.00	< 6.00	> 8.00	–
